Experimental data taken from patent US8889894B2, “Compounds for use in therapy” (Bangor University, priority 2008, dated 2014).

Tests used:
[1] = tested on: Th2-driven allergic airway inflammation; assay: Suppression of allergic airway inflammation in a mouse asthma model (OVA/Alum immunised, OVA-aerosol challenge); assay type: in vivo; settings: liposomes intratracheally to OVA/Alum immunised mice, OVA-aerosol challenge after 7 days; flowcytometry (CCR3+); vs empty liposomes; FIG. 5
Procedure: (§1) Briefly, the compounds were mixed with phosphatidylcholine (Sigma) in chloroform. The chloroform was evaporated and the lipids recovered in sterile saline. After ultrasound sonication and vortexing, samples of 25 μg mycolic acids/100 μl/mouse were administered intratracheally. A liposome control was prepared similarly, but without the addition of any mycolic acid compound.
Liposome containing synthetic mycolic acids compounds 5, 6 and 7 were administered intratracheally to mice which had been immunised for the experimental allergen chicken egg ovalbumin (OVA) adjuvanted with Alum (aluminium hydroxide). Following 7 days, the mice were challenged with OVA-aerosol. Th2-driven allergic airway inflammation was apparent in empty liposomes treated animals, from high eosinophil counts in the BAL-fluid by flowcytometry (CCR3^+).

[2] = tested on: CD4+ T-helper (Th) lymphocytes; assay: mRNA expression patterns by RT-qPCR of CD4+ T-helper lymphocytes from asthmatic mouse lungs; assay type: in vivo; settings: compounds in liposomes; with reference to empty liposome treatment; FIG. 7
Text: From the previous examples it can be concluded that the synthetic mycolic acids have a significant effect on immune reactivity. The nature of the immune modification appears to be structure dependent. This can be seen from examination of mRNA expression patterns by RT-qPCR of CD4+ T-helper (Th) lymphocytes, isolated from asthmatic mouse lungs after treatment with compounds 6, 8 and 9 formulated into liposomes. The results are shown in FIGS. 7a to e with reference to an empty liposome treatment. All of the synthetic mycolic acid isomers repressed the transcription of the Th2 effector cytokine IL-4 to some degree.

alveolar macrophages = assay: Foaming of mycolic acid treated alveolar macrophages (ORO-stained lung sections); assay type: in vivo, C57BL/6 mice; settings: single intratracheal dose of liposomes carrying compound, a week earlier; compared with empty liposomes or liposomes containing compound 1; FIG. 2
Procedure: as §1
Formation of cholesterol-rich foamy alveolar macrophages upon intratracheal instillation of mycolic acid containing liposomes is indicative of a possible mycolic acid induced suppression of Th2-mediated eosinophilia. In a mouse model of allergic asthma this is mediated by a mechanism involving antigen presentation by these foam cells and the activity of regulatory T-lymphocytes (Korf et al, Am. J. Respir. Crit. Care Med., 174, 1-9, 2006).
We verified the induction of cholesterol-loaded cells in the lungs of C57BL/6 mice that received a single dose of liposomes carrying compounds a week earlier. The mice were treated with empty liposomes, liposomes containing control compound 1, liposomes containing compound 2 and liposomes containing compound 4. Frozen lung sections were stained with the lipophilic Oil Red O dye (ORO) thereby visualising foam cell intracellular lipid vesicles and counterstained with haematoxylin. […]

C547BL/6 mice [3] = assay: Inflammatory cell infiltration to the airways (BAL, flowcytometry); assay type: in vivo; settings: 48 hours after intratracheal liposomes; BAL-fluid; compared to empty liposome treatment
Procedure: as §1
In order to be considered safe for therapeutic administration, compounds should preferably cause as little local inflammation or resulting tissue changes as possible.
After 48 hours, mice were sacrificed and a broncho-alveolar lavage (BAL) was performed to measure the airway cell types and numbers by flowcytometry. Increased cell numbers and the appearance of granulocytes (mainly neutrophils) in the BAL-fluid are indicative for cell recruitment to the airways as result of an inflammatory reaction.

C547BL/6 mice [4] = assay: Histo-pathological examination of lung tissue (haematoxylin and eosin, score 0-5); assay type: in vivo; settings: 48 hours after intratracheal liposomes; lavaged lungs, double-blinded pathologist score; FIG. 4
Text: Lavaged lungs were ectomised to allow for histo-pathological examination of the lung tissue. A haematoxylin and eosin staining of the paraffin lung sections was followed by a thorough examination by a skilled pathologist who scored the sections according to the following criteria in a double-blinded manner:
1=a minority of the bronchi are surrounded by some infiltrated inflammatory cells
2=the majority of the bronchi are surrounded by some infiltrated inflammatory cells
3=dispersed are some heavy infiltrates of neutrophils and eosinophils
4=a lot of infiltrating neutrophils and eosinophils throughout the entire lung section
5=same as 4 with additionally signs of airway remodelling e.g. basal membrane thickening, mucus overproduction and/or smooth muscle cell hyperplasia

SMILES | scores of ORO positive cells/microscopic field (alveolar macrophages) | inflammatory cell infiltration to the airways (C547BL/6 mice [3]) | lung tissue changes (C547BL/6 mice [4]) | further results
CCCCCCCCCCCCCCCCCCCCCCCC[C@@H](C(=O)O)[C@H](O)CCCCCCCCCCCCCCCCC[C@@H]1CC1CCCCCCCCCCCCCCCC[C@@H](OC)[C@@H](C)CCCCCCCCCCCCCCCCCC (some centres unmarked) [Compound 6] | – | – | – | eosinophil count in the BAL-fluid [1]: at least two-fold decreased; FoxP3 (regulatory T-cell) response [2]: especially good in suppressing; Gata-3 transcription (Th2) [2]: especially good in suppressing; IL-4 transcription (Th2 effector cytokine) [2]: especially good in suppressing
CCCCCCCCCCCCCCCCCCCCCCCC[C@@H](C(=O)O)[C@H](O)CCCCCCCCCCC[C@H]1CC1CCCCCCCCCCCCCC[C@H]1C[C@H]1CCCCCCCCCCCCCCCCCCCC (some centres unmarked) [Compound 2] | significantly higher scores | – | – | –
CCCCCCCCCCCCCCCCCCCCCCCC[C@@H](C(=O)O)[C@H](O)CCCCCCCCCCCCCCC[C@@H]1C[C@@H]1CCCCCCCCCCCCCCCCCCC(=O)[C@@H](C)CCCCCCCCCCCCCCCCCC (single isomer, unassigned) [Example 3] | – | – | – | melting point: 66 to 68 °C
CCCCCCCCCCCCCCCCCCCCCCCC[C@@H](C(=O)O)[C@H](O)CCCCCCCCCCCCCCCC[C@H]1C[C@@H]1[C@@H](C)CCCCCCCCCCCCCCCCCCC(=O)C(C)CCCCCCCCCCCCCCCCCC (some centres unmarked) [Compound 4] | significantly higher scores | do not | did not cause any significant lung tissue changes | –
CCCCCCCCCCCCCCCCCCCC[C@H]1C[C@H]1CCCCCCCCCCCCCCC1C[C@H]1CCCCCCCCCCC[C@@H](O)[C@@H](CC)C(=O)O (some centres unmarked) [Compound 3] | – | do not | did not cause any significant lung tissue changes | –
